The molecules below were run against GCN2 (Homo sapiens, UniProt Q9P2K8) (assay: TR-FRET biochemical assay for inhibition of GCN2 (Example 106, for Example 1-4BB)). Settings: Table 8.
Chain of GCN2 (Q9P2K8 whole entry): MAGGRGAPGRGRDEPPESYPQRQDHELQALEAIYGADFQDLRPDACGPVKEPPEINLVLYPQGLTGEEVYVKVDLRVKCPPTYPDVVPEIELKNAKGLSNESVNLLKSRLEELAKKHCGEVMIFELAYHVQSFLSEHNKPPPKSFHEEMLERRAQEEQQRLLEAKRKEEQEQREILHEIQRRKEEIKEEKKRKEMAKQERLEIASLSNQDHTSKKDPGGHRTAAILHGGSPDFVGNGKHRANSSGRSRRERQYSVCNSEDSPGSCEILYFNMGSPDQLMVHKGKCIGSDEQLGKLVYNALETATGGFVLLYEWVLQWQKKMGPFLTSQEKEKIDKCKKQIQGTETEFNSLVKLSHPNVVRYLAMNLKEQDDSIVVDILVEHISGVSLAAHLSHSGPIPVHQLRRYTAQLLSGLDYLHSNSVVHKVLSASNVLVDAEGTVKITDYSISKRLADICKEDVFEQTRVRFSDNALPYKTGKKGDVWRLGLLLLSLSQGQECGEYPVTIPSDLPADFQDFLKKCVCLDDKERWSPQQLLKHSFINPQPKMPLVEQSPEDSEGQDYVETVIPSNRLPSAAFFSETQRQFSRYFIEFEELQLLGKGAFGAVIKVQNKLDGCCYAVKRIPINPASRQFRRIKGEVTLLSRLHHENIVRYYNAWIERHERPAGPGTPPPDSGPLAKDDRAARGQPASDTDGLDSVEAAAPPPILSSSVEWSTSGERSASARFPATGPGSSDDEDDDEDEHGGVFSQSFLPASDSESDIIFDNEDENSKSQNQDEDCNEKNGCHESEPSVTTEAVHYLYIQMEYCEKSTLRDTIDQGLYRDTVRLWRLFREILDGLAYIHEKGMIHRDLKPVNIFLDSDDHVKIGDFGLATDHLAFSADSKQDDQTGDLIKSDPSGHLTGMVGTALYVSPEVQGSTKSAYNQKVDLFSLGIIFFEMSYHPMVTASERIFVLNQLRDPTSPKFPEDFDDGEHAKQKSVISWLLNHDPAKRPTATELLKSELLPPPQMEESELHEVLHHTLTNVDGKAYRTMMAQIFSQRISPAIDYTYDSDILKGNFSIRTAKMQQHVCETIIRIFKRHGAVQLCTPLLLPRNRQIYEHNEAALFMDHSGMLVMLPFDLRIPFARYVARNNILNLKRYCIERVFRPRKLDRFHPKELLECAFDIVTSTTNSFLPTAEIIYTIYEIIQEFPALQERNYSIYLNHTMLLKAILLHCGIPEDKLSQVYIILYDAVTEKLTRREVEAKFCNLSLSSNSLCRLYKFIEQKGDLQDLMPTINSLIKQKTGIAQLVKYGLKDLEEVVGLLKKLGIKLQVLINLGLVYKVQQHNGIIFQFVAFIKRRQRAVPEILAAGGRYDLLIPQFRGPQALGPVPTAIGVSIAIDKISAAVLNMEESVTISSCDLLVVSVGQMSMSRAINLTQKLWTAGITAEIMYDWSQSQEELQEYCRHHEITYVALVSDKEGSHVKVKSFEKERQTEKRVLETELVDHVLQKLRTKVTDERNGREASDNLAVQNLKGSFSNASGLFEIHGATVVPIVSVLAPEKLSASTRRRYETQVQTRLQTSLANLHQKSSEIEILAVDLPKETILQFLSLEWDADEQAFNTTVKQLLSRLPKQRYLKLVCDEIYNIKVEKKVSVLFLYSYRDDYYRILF

Row | IC50 [nM] | SMILES
1 | 2500 to 10000 | COc1ncc(Cl)cc1S(=O)(=O)Nc1cc(C)nc(-c2ccc3c(-c4ncc[nH]4)n[nH]c3c2F)c1F [Example 2AO, 5-chloro-N-(3-fluoro-2-(7-fluoro-3-(1H-imidazol-2-yl)-1H-indazol-6-yl)-6-methyl-pyridin-4-yl)-2-methoxy-pyridine-3-sulfonamide]
2 | 500 to 2500 | COc1ncc(Cl)cc1S(=O)(=O)Nc1ccc(F)c(-c2ccc3c(-c4ccccn4)n[nH]c3c2F)c1F [Example 2CD, 5-chloro-N-(2,4-difluoro-3-(7-fluoro-3-(pyridin-2-yl)-1H-indazol-6-yl)phenyl)-2-methoxypyridine-3-sulfonamide]
3 | 2500 to 10000 | Cn1ccnc1S(=O)(=O)Nc1ccc(F)c(-c2ccc3c(-c4ncc[nH]4)n[nH]c3c2F)c1F [Example 2S, N-(2,4-difluoro-3-(7-fluoro-3-(1H-imidazol-2-yl)-1H-indazol-6-yl)phenyl)-1-methyl-1H-imidazole-2-sulfonamide]
4 | 500 to 2500 | Cc1nn(C)c(C)c1S(=O)(=O)Nc1ccc(F)c(-c2ccc3c(-c4ncc[nH]4)n[nH]c3c2F)c1F [Example 2E, N-(2,4-difluoro-3-(7-fluoro-3-(1H-imidazol-2-yl)-1H-indazol-6-yl)phenyl)-1,3,5-trimethyl-1H-pyrazole-4-sulfonamide]
5 | < 500 | O=S(=O)(Nc1ccc(F)c(-c2ccc3c(-c4ncc[nH]4)n[nH]c3c2F)c1F)c1ccc(Cl)cc1Cl [Example 2BN, 2,4-dichloro-N-(2,4-difluoro-3-(7-fluoro-3-(1H-imidazol-2-yl)-1H-indazol-6-yl)phenyl)-benzenesulfonamide]
6 | < 500 | N#Cc1cccc(S(=O)(=O)Nc2ccc(F)c(-c3ccc4c(-c5ncc[nH]5)n[nH]c4c3F)c2F)c1 [Example 2BQ, 3-cyano-N-(2,4-difluoro-3-(7-fluoro-3-(1H-imidazol-2-yl)-1H-indazol-6-yl)phenyl)-benzenesulfonamide]
7 | < 500 | O=S(=O)(Nc1ccc(F)c(-c2ccc3c(-c4ncc[nH]4)n[nH]c3c2F)c1F)c1cccc(F)c1F [Example 2AG, N-(2,4-difluoro-3-(7-fluoro-3-(1H-imidazol-2-yl)-1H-indazol-6-yl)phenyl)-2,3-difluorobenzenesulfonamide]
8 | < 500 | COc1ncc(Cl)cc1S(=O)(=O)Nc1ccnc(-c2ccc3c(-c4ncc[nH]4)n[nH]c3c2)c1F [Example 2CB, N-(2-(3-(1H-imidazol-2-yl)-1H-indazol-6-yl)-3-fluoro-pyridin-4-yl)-5-chloro-2-methoxypyridinc-3-sulfonamide]

Same assay, conditions: Table 9

Row | SMILES | IC50 [nM]
9 | COc1ncc(F)cc1S(=O)(=O)Nc1cccc(-c2ccc3c(-c4ncc[nH]4)n[nH]c3c2C)c1F [Example 22, N-(3-(3-(1H-Imidazol-2-yl)-7-methyl-1H-indazol-6-yl)-2-fluorophenyl)-5-fluoro-2-methoxypyridine-3-sulfonamide] | 500 to 2500
10 | COc1ncc(F)cc1S(=O)(=O)Nc1cccc(-c2ccc3c(-c4ncc[nH]4)n[nH]c3c2Cl)c1F [Example 18, N-(3-(7-Chloro-3-(1H-imidazol-2-yl)-1H-indazol-6-yl)-2-fluorophenyl)-5-fluoro-2-methoxypyridine-3-sulfonamide] | 500 to 2500
11 | COc1ncc(F)cc1S(=O)(=O)Nc1ccc(F)c(-c2ccc3c(-c4nc(Cl)c[nH]4)n[nH]c3c2F)c1F [Example 17, N-(3-(3-(4-Chloro-1H-imidazol-2-yl)-7-fluoro-1H-indazol-6-yl)-2,4-difluorophenyl)-5-fluoro-2-methoxypyridine-3-sulfonamide] | < 500
12 | O=S(=O)(Nc1ccc(F)c(-c2ccc3c(-c4ccccc4)n[nH]c3c2)c1F)c1cc(F)ccc1F [Example 10, N-(2,4-Difluoro-3-(3-phenyl-1H-indazol-6-yl)phenyl)-2,5-difluorobenzenesulfonamide] | 2500 to 10000

Next, values leading:

Row | IC50 [nM] | SMILES
13 | > 10000 | COc1ncc(F)cc1S(=O)(=O)Nc1ncc(F)c(-c2ccc3c(C(N)=O)n[nH]c3c2F)c1F [Example 3M, 6-(3,5-difluoro-2-((5-fluoro-2-methoxypyridine)-3-sulfonamido)pyridin-4-yl)-7-fluoro-1H-indazole-3-carboxamide]
14 | < 500 | COc1nc(C)c(Cl)cc1S(=O)(=O)Nc1ccc(F)c(-c2ccc3c(C(=O)NCCCO)n[nH]c3c2F)c1F [Example 3DO, 6-(3-((5-chloro-2-methoxy-6-methylpyridine)-3-sulfon-amido)-2,6-difluorophenyl)-7-fluoro-N-(3-hydroxypropyl)-1H-indazole-3-carboxamide]
15 | < 500 | COc1ncc(Cl)cc1S(=O)(=O)Nc1cc(F)cc(-c2ccc3c(C(=O)N[C@@H]4CCN(C)C4)n[nH]c3c2F)c1F [Example 3BL, 6-(3-((5-chloro-2-methoxy-pyridine)-3-sulfonamido)-2,5-difluorophenyl)-7-fluoro-N-((R)-1-methylpyrrolidin-3-yl)-1H-indazole-3-carboxamide]
16 | < 500 | COc1ncc(Cl)cc1S(=O)(=O)Nc1ccc(F)c(-c2ccc3c(C(=O)N[C@@H]4CCN(C)C4)n[nH]c3c2F)c1F [Example 3AD, 6-(3-((5-chloro-2-methoxy-pyridine)-3-sulfonamido)-2,6-difluorophenyl)-7-fluoro-N-((R)-1-methylpyrrolidin-3-yl)-1H-indazole-3-carboxamide]
17 | < 500 | COc1ncc(Cl)cc1S(=O)(=O)Nc1cccc(-c2cc3[nH]nc(C(=O)NCCCO)c3cn2)c1F [Example 3BC, 6-(3-((5-chloro-2-methoxy-pyridine)-3-sulfonamido)-2-fluorophenyl)-N-(3-hydroxy-propyl)-1H-pyrazolo[4,3-c]pyridine-3-carboxamide]
18 | < 500 | COc1ncc(C#N)cc1S(=O)(=O)Nc1ccc(F)c(-c2ccc3c(C(N)=O)n[nH]c3c2F)c1F [Example 4D]
19 | < 500 | COc1ncc(F)cc1S(=O)(=O)Nc1ccc(F)c(-c2ccc3c(C(=O)Nc4cn[nH]c4)n[nH]c3c2F)c1F [Example 3BO, 6-(2,6-difluoro-3-((5-fluoro-2-methoxypyridine)-3-sulfonamido)phenyl)-7-fluoro-N-(1H-pyrazol-4-yl)-1H-indazole-3-carboxamide]
20 | < 500 | COc1ncc(F)cc1S(=O)(=O)Nc1ccc(F)c(-c2ccc3c(C(=O)NCC#N)n[nH]c3c2F)c1F [Example 3AW, N-(cyanomethyl)-6-(2,6-difluoro-3-((5-fluoro-2-methoxypyridine)-3-sulfon-amido)phenyl)-7-fluoro-1H-indazole-3-carboxamide]
21 | < 500 | Cc1ncc(F)cc1S(=O)(=O)Nc1ccc(F)c(-c2ccc3c(C(=O)Nc4cn[nH]c4)n[nH]c3c2F)c1F [Example 3DS, 6-(2,6-difluoro-3-((5-fluoro-2-methylpyridine)-3-sulfonamido)phenyl)-7-fluoro-N-(1H-pyrazol-4-yl)-1H-indazole-3-carboxamide]
22 | < 500 | Cc1ccc(S(=O)(=O)Nc2ccc(F)c(-c3ccc4c(C(=O)Nc5cnoc5)n[nH]c4c3F)c2F)c(C)n1 [Example 3DG, 6-(3-((2,6-dimethylpyridine)-3-sulfonamido)-2,6-difluoro-phenyl)-7-fluoro-N-(isoxazol-4-yl)-1H-indazole-3-carboxamide]
23 | < 500 | NC(=O)c1n[nH]c2c(F)c(-c3c(F)ccc(NS(=O)(=O)c4cc(F)cc5c4CCC5=O)c3F)ccc12 [Example 4S]
24 | < 500 | COc1ncc(Cl)cc1S(=O)(=O)Nc1ccc(F)c(-c2ccc3c(C(=O)Nc4cn[nH]c4)n[nH]c3c2F)c1F [Example 3CQ, 6-(3-((5-chloro-2-methoxy-pyridine)-3-sulfonamido)-2,6-difluorophenyl)-7-fluoro-N-(1H-pyrazol-4-yl)-1H-indazole-3-carboxamide]
25 | < 500 | COc1ncc(F)cc1S(=O)(=O)Nc1ccc(F)c(-c2ccc3c(C(=O)NCC[C@@H](O)CO)n[nH]c3c2F)c1F [Example 3BF, 6-(2,6-difluoro-3-((5-fluoro-2-methoxypyridine)-3-sulfonamido)phenyl)-N-((R)-3,4-dihydroxybutyl)-7-fluoro-1H-indazole-3-carboxamide]
26 | 500 to 2500 | COc1ncc(F)cc1S(=O)(=O)Nc1ccc(F)c(-c2ccc3c(C(=O)NCC(N)=O)n[nH]c3c2F)c1F [Example 3AM, N-(2-amino-2-oxoethyl)-6-(2,6-difluoro-3-((5-fluoro-2-methoxypyridine)-3-sulfon-amido)phenyl)-7-fluoro-1H-indazole-3-carboxamide]
27 | < 500 | Cc1ncc(F)cc1S(=O)(=O)Nc1ccc(F)c(-c2ccc3c(C(=O)Nc4cnn(C)c4)n[nH]c3c2F)c1F [Example 3DR, 6-(2,6-difluoro-3-((5-fluoro-2-methylpyridine)-3-sulfon-amido)phenyl)-7-fluoro-N-(1-methyl-1H-pyrazol-4-yl)-1H-indazole-3-carboxamide]
28 | < 500 | COc1ncc(F)cc1S(=O)(=O)Nc1ccc(F)c(-c2ccc3c(C(=O)NC[C@@H](O)CO)n[nH]c3c2F)c1F [Example 3AH, 6-(2,6-difluoro-3-((5-fluoro-2-methoxypyridine)-3-sulfonamido)phenyl)-N-((R)-2,3-dihydroxypropyl)-7-fluoro-1H-indazole-3-carboxamide]
29 | 500 to 2500 | COc1ccc(NS(=O)(=O)c2cc(F)cnc2OC)c(F)c1-c1ccc2c(C(N)=O)n[nH]c2c1F [Example 3AO, 7-fluoro-6-(2-fluoro-3-((5-fluoro-2-methoxypyridine)-3-sulfonamido)-6-methoxy-phenyl)-1H-indazole-3-carboxamide]
30 | < 500 | COc1ncc(F)cc1S(=O)(=O)Nc1cccc(-c2ccc3c(-c4ncc[nH]4)n[nH]c3c2F)c1F [Example 3V, N-(2-fluoro-3-(7-fluoro-3-(1H-imidazol-2-yl)-1H-indazol-6-yl)phenyl)-5-fluoro-2-methoxypyridine-3-sulfonamide]
31 | < 500 | COc1ncc(F)cc1S(=O)(=O)Nc1ncc(F)c(-c2ccc3c(-c4nc(CO)c[nH]4)n[nH]c3c2F)c1F [Example 3K, N-(3,5-difluoro-4-(7-fluoro-3-(4-(hydroxymethyl)-1H-imidazol-2-yl)-1H-indazol-6-yl)pyridin-2-yl)-5-fluoro-2-methoxypyridine-3-sulfonamide]
32 | < 500 | COc1nc(C)c(C#N)cc1S(=O)(=O)Nc1ccc(F)c(-c2ccc3c(-c4ncc[nH]4)n[nH]c3c2F)c1F [Example 3DK, 5-cyano-N-(2,4-difluoro-3-(7-fluoro-3-(1H-imidazol-2-yl)-1H-indazol-6-yl)phenyl)-2-methoxy-6-methylpyridine-3-sulfonamide]

Reference: patent publication US20220388964A1 (HiberCell, Inc., priority 2019, published 2022)
